# Source: patent US11213517B2, “Pharmaceutical combination comprising a T-type calcium channel blocker” (IDORSIA PHARMACEUTICALS LTD, priority 2016, dated 2022)
# Where “and” joins values, the source holds several entries; their conditions need not be identical. Equal values may be shown once. Read-outs that look alike come from different tables or passages of the source.
# Tests used:
# [1] = Plasma and brain concentrations of drugs at the end of the audiogenic seizure experiment (LC-MS); format: in vivo, mouse; settings: for plasma and brain concentrations after administration of the compounds alone or in combination: juvenile DBA/2J mice; for concentration at 1 h: DBA/2J, mouse, oral
# Procedure: Briefly, blood was sampled from the vena cava caudalis with a syringe pre-filled with EDTA (ethylenediamine tetraacetic acid) as anticoagulant and centrifuged to yield plasma (for 10 minutes, at 4° C. and 5000 rpm (rounds per minute)). Brain was sampled and homogenized into one volume of cold phosphate buffer (pH 7.4). Following extraction with methanol, concentrations of the compound in plasma and brain were determined using liquid chromatography coupled to mass spectrometry.
# (§1) Different combination efficacy experiments are performed. […] Each experiment consists of four treatment groups: • 1. Vehicle (10% Polyethylene glycol400 (PEG400)/90% methylcellulose (0.5% in water; MC0.5%)), 3 h before exposure to the auditory stimulus+vehicle, 1 h before exposure to the auditory stimulus; • 2. COMPOUND 1 (in 10% PEG400/90% MC0.5%), 3 h before exposure to the auditory stimulus+vehicle, 1 h before exposure to the auditory stimulus; • 3. Vehicle, 3 h before exposure to the auditory stimulus+AED (in 10% PEG400/90% MC0.5%), 1 h before exposure to the auditory stimulus; and • 4. COMPOUND 1 (in 10% PEG400/90% MC0.5%), 3 h before exposure to the auditory stimulus+AED (in 10% PEG400/90% MC0.5%), 1 h before exposure to the auditory stimulus.
# [2] = test system: audiogenic seizure-sensitive juvenile DBA/2J mice; experiment: Audiogenic seizure-sensitive juvenile DBA/2J mouse model of generalized tonic-clonic seizures; format: in vivo; parameters: key: 0 none, 1 wild running, 2 clonus, 3 hind-limb tonic extension; settings: oral gavage, mean ± SEM
# Excerpt: Audiogenic Seizure-Sensitive Juvenile DBA/2J Mouse Model of Generalized Tonic-Clonic Seizures
# The inbred DBA/2J mouse strain carries an increased general susceptibility for acute generalized convulsive seizures induced by either pharmacological, electrical or, as juvenile, auditory stimuli. At the age of 17 to 28 days (juvenile), they show tonic-clonic convulsions when exposed to a loud tone.
# Male juvenile DBA/2J mice (22-24 days old, body weight between 6.6 and 14.5 grams) were used. Each mouse was placed individually in the exposure chamber, an hemispheric acrylic glass dome (diameter: 50 cm) within a sound-attenuated box. After 60 seconds of habituation, an auditory stimulus of mixed frequency tone (15-20 kHz at 110 dB) was played from a speaker placed on the top center of the dome.
# The sound-attenuated box was equipped with lights and a camera system in order to observe and record the behavioral seizure response classified as following: • stage 0, no response • stage 1, wild running • stage 2, clonus • stage 3, tonic extension of the hind limbs.
# as §1
# [3] = analyte LTG, vehicle 3 h + LTG 10 mg/kg 1 h before stimulus, oral gavage, mean ± SEM
smiles,measurement,setting,value
"CC[C@@H](C(N)=O)N1CCCC1=O [LEV, (S)-2-(2-oxopyrrolidin-1-yl)butanamide]",plasma and brain concentrations after administration of the compounds alone or in combination,[1]; COMPOUND 1 and LEV,similar
same,concentration at 1 h,"[1]; brain, 1 mg/kg, analyte LEV, vehicle 3 h + LEV 1 mg/kg 1 h before stimulus, oral gavage, mean ± SEM, read-out: Brain concentration total",224 ± 20 ng/g
same,concentration at 1 h,"[1]; brain, 3 mg/kg, analyte LEV, vehicle 3 h + LEV 3 mg/kg 1 h before stimulus, oral gavage, mean ± SEM, read-out: Brain concentration total",677 ± 70 ng/g
same,concentration at 1 h,"[1]; brain, 10 mg/kg, analyte LEV, vehicle 3 h + LEV 10 mg/kg 1 h before stimulus, oral gavage, mean ± SEM, read-out: Brain concentration total",2130 ± 267 ng/g
same,concentration at 1 h,"[1]; brain, 50 mg/kg, analyte LEV, vehicle 3 h + LEV 50 mg/kg 1 h before stimulus, oral gavage, mean ± SEM, read-out: Brain concentration total",11100 ± 886 ng/g
same,concentration at 1 h,"[1]; brain, analyte LEV, COMPOUND 1 10 mg/kg 3 h + LEV 1 mg/kg 1 h before stimulus, oral gavage, mean ± SEM, read-out: Brain concentration total",310 ± 34 ng/g
same,concentration at 1 h,"[1]; brain, analyte LEV, COMPOUND 1 10 mg/kg 3 h + LEV 3 mg/kg 1 h before stimulus, oral gavage, mean ± SEM, read-out: Brain concentration total",787 ± 39 ng/g
same,concentration at 1 h,"[1]; brain, analyte LEV, COMPOUND 1 10 mg/kg 3 h + LEV 10 mg/kg 1 h before stimulus, oral gavage, mean ± SEM, read-out: Brain concentration total",2590 ± 169 ng/g
same,concentration at 1 h,"[1]; brain, analyte LEV, COMPOUND 1 10 mg/kg 3 h + LEV 50 mg/kg 1 h before stimulus, oral gavage, mean ± SEM, read-out: Brain concentration total",12600 ± 549 ng/g
same,concentration at 1 h,"[1]; brain, analyte LEV, COMPOUND 1 30 mg/kg 3 h + LEV 3 mg/kg 1 h before stimulus, oral gavage, mean ± SEM, read-out: Brain concentration total",714 ± 59 ng/g
same,concentration at 1 h,"[1]; brain, analyte LEV, COMPOUND 1 30 mg/kg 3 h + LEV 10 mg/kg 1 h before stimulus, oral gavage, mean ± SEM, read-out: Brain concentration total",2150 ± 142 ng/g
same,concentration at 1 h,"[1]; brain, analyte LEV, COMPOUND 1 30 mg/kg 3 h + LEV 50 mg/kg 1 h before stimulus, oral gavage, mean ± SEM, read-out: Brain concentration total",13500 ± 1380 ng/g
same,concentration at 1 h,"[1]; plasma, 1 mg/kg, analyte LEV, vehicle 3 h + LEV 1 mg/kg 1 h before stimulus, oral gavage, mean ± SEM, read-out: Plasma concentration total",541 ± 48 ng/mL
same,concentration at 1 h,"[1]; plasma, 3 mg/kg, analyte LEV, vehicle 3 h + LEV 3 mg/kg 1 h before stimulus, oral gavage, mean ± SEM, read-out: Plasma concentration total",1170 ± 53 ng/mL
same,concentration at 1 h,"[1]; plasma, 10 mg/kg, analyte LEV, vehicle 3 h + LEV 10 mg/kg 1 h before stimulus, oral gavage, mean ± SEM, read-out: Plasma concentration total",4530 ± 473 ng/mL
same,concentration at 1 h,"[1]; plasma, 50 mg/kg, analyte LEV, vehicle 3 h + LEV 50 mg/kg 1 h before stimulus, oral gavage, mean ± SEM, read-out: Plasma concentration total",26500 ± 2810 ng/mL
same,concentration at 1 h,"[1]; plasma, analyte LEV, COMPOUND 1 10 mg/kg 3 h + LEV 1 mg/kg 1 h before stimulus, oral gavage, mean ± SEM, read-out: Plasma concentration total",564 ± 42 ng/mL
same,concentration at 1 h,"[1]; plasma, analyte LEV, COMPOUND 1 10 mg/kg 3 h + LEV 3 mg/kg 1 h before stimulus, oral gavage, mean ± SEM, read-out: Plasma concentration total",1250 ± 53 ng/mL
same,concentration at 1 h,"[1]; plasma, analyte LEV, COMPOUND 1 10 mg/kg 3 h + LEV 10 mg/kg 1 h before stimulus, oral gavage, mean ± SEM, read-out: Plasma concentration total",5780 ± 232 ng/mL
same,concentration at 1 h,"[1]; plasma, analyte LEV, COMPOUND 1 10 mg/kg 3 h + LEV 50 mg/kg 1 h before stimulus, oral gavage, mean ± SEM, read-out: Plasma concentration total",27000 ± 1350 ng/mL
same,concentration at 1 h,"[1]; plasma, analyte LEV, COMPOUND 1 30 mg/kg 3 h + LEV 3 mg/kg 1 h before stimulus, oral gavage, mean ± SEM, read-out: Plasma concentration total",1230 ± 64 ng/mL
same,concentration at 1 h,"[1]; plasma, analyte LEV, COMPOUND 1 30 mg/kg 3 h + LEV 10 mg/kg 1 h before stimulus, oral gavage, mean ± SEM, read-out: Plasma concentration total",3880 ± 226 ng/mL
same,concentration at 1 h,"[1]; plasma, analyte LEV, COMPOUND 1 30 mg/kg 3 h + LEV 50 mg/kg 1 h before stimulus, oral gavage, mean ± SEM, read-out: Plasma concentration total",26200 ± 2400 ng/mL
same,Brain concentration total,"[1]; analyte LEV, vehicle 3 h + LEV 3 mg/kg 1 h before stimulus, oral gavage, mean ± SEM",675 ± 82 ng/g
same,Brain concentration total,"[1]; analyte LEV, vehicle 3 h + LEV 10 mg/kg 1 h before stimulus, oral gavage, mean ± SEM",2307 ± 207 ng/g
same,Brain concentration total,"[1]; analyte LEV, vehicle 3 h + LEV 50 mg/kg 1 h before stimulus, oral gavage, mean ± SEM",11318 ± 1440 ng/g
same,Seizure stage (maximal seizure stage observed during exposure to auditory stimulus),[2]; vehicle 3 h + LEV 1 mg/kg 1 h before stimulus,3.0 ± 0.0
same,Seizure stage (maximal seizure stage observed during exposure to auditory stimulus),"[2]; vehicle 3 h + LEV 1 mg/kg 1 h before stimulus, listed as levetiracetam",3
same,Seizure stage (maximal seizure stage observed during exposure to auditory stimulus),[2]; vehicle 3 h + LEV 3 mg/kg 1 h before stimulus,2.1 ± 0.4 and 2.6 ± 0.3
"Nc1nnc(-c2cccc(Cl)c2Cl)c(N)n1 [LTG, 6-(2,3-dichlorophenyl)-1,2,4-triazine-3,5-diamine]",plasma and brain concentrations after administration of the compounds alone or in combination,[1]; COMPOUND 1 and lamotrigine,similar
same,concentration at 1 h,"[1]; brain, 3 mg/kg, analyte LTG, vehicle 3 h + LTG 3 mg/kg 1 h before stimulus, oral gavage, mean ± SEM, read-out: Brain concentration total",1490 ± 128 ng/g
same,concentration at 1 h,"[1]; brain, 10 mg/kg, analyte LTG, vehicle 3 h + LTG 10 mg/kg 1 h before stimulus, oral gavage, mean ± SEM, read-out: Brain concentration total",3260 ± 144 ng/g
same,concentration at 1 h,"[1]; brain, 30 mg/kg, analyte LTG, vehicle 3 h + LTG 30 mg/kg 1 h before stimulus, oral gavage, mean ± SEM, read-out: Brain concentration total",8890 ± 248 ng/g
same,concentration at 1 h,"[1]; brain, analyte LTG, COMPOUND 1 10 mg/kg 3 h + LTG 10 mg/kg 1 h before stimulus, oral gavage, mean ± SEM, read-out: Brain concentration total",3690 ± 393 ng/g
same,concentration at 1 h,"[1]; brain, analyte LTG, COMPOUND 1 30 mg/kg 3 h + LTG 3 mg/kg 1 h before stimulus, oral gavage, mean ± SEM, read-out: Brain concentration total",1370 ± 100 ng/g
same,concentration at 1 h,"[1]; brain, analyte LTG, COMPOUND 1 30 mg/kg 3 h + LTG 10 mg/kg 1 h before stimulus, oral gavage, mean ± SEM, read-out: Brain concentration total",3660 ± 310 ng/g
same,concentration at 1 h,"[1]; brain, analyte LTG, COMPOUND 1 30 mg/kg 3 h + LTG 30 mg/kg 1 h before stimulus, oral gavage, mean ± SEM, read-out: Brain concentration total",8560 ± 853 ng/g
same,concentration at 1 h,"[1]; plasma, 3 mg/kg, analyte LTG, vehicle 3 h + LTG 3 mg/kg 1 h before stimulus, oral gavage, mean ± SEM, read-out: Plasma concentration total",293 ± 27 ng/mL
same,concentration at 1 h,"[1]; plasma, 10 mg/kg, analyte LTG, vehicle 3 h + LTG 10 mg/kg 1 h before stimulus, oral gavage, mean ± SEM, read-out: Plasma concentration total",930 ± 77 ng/mL
same,concentration at 1 h,"[1]; plasma, 30 mg/kg, analyte LTG, vehicle 3 h + LTG 30 mg/kg 1 h before stimulus, oral gavage, mean ± SEM, read-out: Plasma concentration total",3560 ± 165 ng/mL
same,concentration at 1 h,"[1]; plasma, analyte LTG, COMPOUND 1 10 mg/kg 3 h + LTG 10 mg/kg 1 h before stimulus, oral gavage, mean ± SEM, read-out: Plasma concentration total",859 ± 101 ng/mL
same,concentration at 1 h,"[1]; plasma, analyte LTG, COMPOUND 1 30 mg/kg 3 h + LTG 3 mg/kg 1 h before stimulus, oral gavage, mean ± SEM, read-out: Plasma concentration total",284 ± 18 ng/mL
same,concentration at 1 h,"[1]; plasma, analyte LTG, COMPOUND 1 30 mg/kg 3 h + LTG 10 mg/kg 1 h before stimulus, oral gavage, mean ± SEM, read-out: Plasma concentration total",1330 ± 102 ng/mL
same,concentration at 1 h,"[1]; plasma, analyte LTG, COMPOUND 1 30 mg/kg 3 h + LTG 30 mg/kg 1 h before stimulus, oral gavage, mean ± SEM, read-out: Plasma concentration total",2800 ± 475 ng/mL
same,Brain concentration total,[1]; [3],4054 ± 323 ng/g
same,Plasma concentration total,[1]; [3],1203 ± 77 ng/mL
same,Seizure stage (maximal seizure stage observed during exposure to auditory stimulus),[2]; vehicle 3 h + LTG 3 mg/kg 1 h before stimulus,1.9 ± 0.2
same,Seizure stage (maximal seizure stage observed during exposure to auditory stimulus),"[2]; vehicle 3 h + LTG 3 mg/kg 1 h before stimulus, listed as lamotrigine",2
same,Seizure stage (maximal seizure stage observed during exposure to auditory stimulus),[2]; vehicle 3 h + LTG 30 mg/kg 1 h before stimulus,0.2 ± 0.2 #
